# Laboratory results: patent US20040242869A1, “Semicarbazides and their uses” (priority 2001, published 2004)
row,melting point [°C],Compound
1,290 to 291,"COc1ccc(-c2[nH]nc3c2C(=O)c2c(NC(=O)NN4CCOCC4)cccc2-3)cc1 [Example 4, 1-[3-(4-methoxy-phenyl)-4-oxo-2,4-dihydro-indeno[1,2-c]pyrazol-5-yl]-3-morpholin-4-yl-urea]"
2,> 300,"COc1ccc(-c2[nH]nc3c2C(=O)c2c(NC(=O)CN4CCC(CN)CC4)cccc2-3)cc1 [Example 9, 2-(4-aminomethyl-piperidin-1-yl)-N-[3-(4-methoxy-phenyl)-4-oxo-2,4-dihydro-indeno[1,2-c]pyrazol-5-yl]-acetamide]"
3,267 to 269,"COc1ccc(-c2[nH]nc3c2C(=O)c2c(NC(N)=O)cccc2-3)cc1 [Example 5, [3-(4-methoxy-phenyl)-4-oxo-2,4-dihydro-indeno[1,2-c]pyrazol-5-yl]-urea]"
4,> 300,"COC(=O)Nc1cccc2c1C(=O)c1c-2n[nH]c1-c1ccc(OC)cc1 [Example 11, 3-(4-Methoxyphenyl)-5-methoxycarbonylamino-2H-indeno-[1,2-c]pyrazol-4-one]"
